Consider ten molecules from US11540515B2, “Use of dialkoxybenzenes for control of honey bee mite varroa destructor” (Simon Fraser University, priority 2018, dated 2023).

Counter-ions that a name gives are not always drawn.

Series [1] has as its system Varroa mites. Briefly: Evaluation of acaricidal effect: emerging bees loaded with Varroa mites in glass petri dish, compound on Parafilm. It is filed as in vivo, Varroa destructor. The settings on record: for mites falling off bees: up to end of experiment; for acaricidal effect: highest amount tested (30 μl), end of 24 h. As for the experimental part:
The effect of the compounds was checked in free moving-mites freshly collected from the bottom board using fine paint brush. All collected Varroa were kept on emerging bees at room temperature until the experiment.
Compounds (code-labeled, Table 1) were prepared in hexane:ethyl acetate (1:1) in 10 mM concentration according to instructions. Dilutions only of compound “A” was prepared. […] This setup enabled the testing of all the compounds and to save the mites.
The assay was conducted in glass petri dish (90 mm diameter and 17 mm deep glass) containing moistened filter paper. Five emerging bees loaded with two Varroa mites were put into each plate. The bees were provided with candy (60% of pollen and 40% sugar). 10 μl or 30 μl volume of each compound or control mix was placed on Parafilm paper (5×5 cm) on the plates cover.

Series [2] deals with Varroa mites. Briefly: Example 6 behavioral dose response bio-assays of Varroa mites. Format: in vivo. The note with it: for mite paralysis/mortality: 1 mg. The text has this:
Foragers were collected at the entrance of one or more honey bee hives by aspiration into a jar, when bees were flying back to the colony.
Initially, nurses were collected from an open brood frame of a honey bee hive. Bees apparently attending the brood were targeted for collection. As time passed and temperatures started to drop no open brood was observed, therefore subsequent collections targeted bees around sealed brood. At the end of the sampling period no sealed brood was present, so bees taken from the middle frame of a brood chamber were considered nurses.
Both foragers and nurses were immediately transferred to individual plastic cages (118×98×81 mm: H×W×D), fed with syrup (2:1) and kept overnight in an incubator at 30° C. and 70% RH. Next day, cages were inspected for any dead bees to be removed before freeze killing the bees on dry ice.
For Varroa mite collection, adult bees were taken from the brood chamber's central frames of a mite-infested hive using a glass jar. Bees were fed with syrup (2:1), and kept in an incubator at 30° C. and 70% RH until needed. First collections were made from frames with open and sealed brood, later only from sealed brood frames.
Mite-infested bees in the glass jar were dusted with icy sugar and shaken over a large plastic weighing boat. Dislodged Varroa were immediately transferred with a fine paint brush to a wet filter paper in a plastic petri dish to avoid desiccation. Individual mites were placed then onto the middle of a glass petri dish bottom (10 cm diameter) with a fresh freeze-killed forager or nurse bee on opposite sides of the plate. Synthesized compounds were applied onto a 1 cm^2 Parafilm square attached to the center of the petri dish cover's inner face, Hexane was used as control.
The bio-assays with a forager and a nurse bee, Varroa mite, and synthesized compounds were set in glass petri dishes placed into an incubator at 30° C. and 70% relative humidity. […] Mite paralysis and death were recorded after 3 h and 5 h.

The subject of series [3] is Varroa destructor mites. Briefly: Example 3 paralysis assays in petri dishes (dose response, screen, blends). Format: in vivo. As for the experimental part: Paralysis assays. These assays were done in 10 cm glass Petri dishes. A 3×3 cm piece of Parafilm was stuck to the lid of the dish, in the middle. The Parafilm received […], either pure (controls) or with the compound (treatments). The bottom of the dish received one freshly thawed nurse and one freshly thawed forager, placed ˜3 cm from the center of the dish. One mite was placed between the nurse and the forager, the lid was closed and groups of dishes were placed in an incubator at 30° C. Humidity levels were kept at around 35-40%.
Observation times were 3 h and 5 h. Mites were scored for whether the mite could move normally, was paralyzed (had difficulty moving) or dead (not moving).
Each assay was done in 5 technical replicates, in two biological replicates. Thus, each biological replicate was scored out of 5.
(§1) Experiments were performed in the dishes: i) dose response assays with a single compound at different doses of compound on the Parafilm (1 ng, 10 ng, 100 ng, 1 μg, 10 μg, 100 μg, 1 mg and 10 mg), ii) a screen with six compounds, all at a 1 mg dose, iii) an assay with blends of compounds 3c{3,6} and 3c{6,6}, and iv) one assay without bees (only to check for mite paralysis and death), with compounds 3c{3,6} and 3c{6,6}(pure or 1:1 blend), at 0.5 and 1 mg doses.

Another series has as its system honey bee antennae. The settings on record: earlier evaluation; cited from earlier work.
Series [4] concerns Varroa. The settings on record: earlier evaluation; cited from earlier work.
Series [5] relates to Varroa. Briefly: Example 5 Varroa death and paralysis assay, single compounds and blend. Further details: species or system Varroa destructor. The note with it: in vivo. The protocol:
Assays were done in 9 cm glass Petri dishes. A 2.5×2.5 cm piece of Parafilm was stuck to the lid of the dish, in the middle. 120 μL water were put on filter paper in the middle of the plate. The Parafilm received 10 μL of hexane, either pure (controls) or with the compound (treatments). The bottom of the dish received one freshly thawed nurse and one freshly thawed forager, placed at opposite sides. One mite was placed between the nurse and the forager, the lid was closed and groups of dishes were placed in an incubator at 30° C. Observation times were at 3 h, 5 h and 20 h. Mites were scored for whether the mite could move normally, was paralyzed (had difficulty moving) or dead (not moving). Four types of experiment were performed in the dishes: i) dose response assays with a single compound at different doses of compound on the Parafilm (1 ng, 10 ng, 100 ng, 1 μg, 10 μg, 100 μg, 1 mg) an assay with blends of compounds 3c{3,6} and 3c{6,6} (pure or 1:1 blend) at 0.5 mg and […].

The subject of series [6] is Varroa destructor mites. Briefly: Example 3 mite paralysis/death in the absence of bees. Format: in vivo. The settings on record: no bees, 4.5 h. As for the experimental part:
as §1
Compounds 3c{3,6}, 3c{6,6} were tested on mites in the absence of bees, alone and as a 1:1 blend. Mite paralysis and death were checked every 30 min, up to 4.5 h after initial exposure. Four doses were tested: 0.2, 0.5, 1 and 10 mg.

On to `C=CCOc1ccc(OCCCCC)cc1` [3c{n5,6}, 1-(allyloxy)-4-(pentyloxy)benzene], for which the “mites falling off bees” value with Varroa mites [1] was “occasionally fell off bees but reattached quickly”.
Turning to `CCOc1cccc(OCC)c1` [3b{2,2}, 1,3-diethoxybenzene], the mite paralysis/mortality in the series on Varroa mites [2] came out at 50%.
Consider `C=CCOc1ccc(OCCCC)cc1` [3c{4,6}, 1-(allyloxy)-4-butoxybenzene], for which, in the series with Varroa mites [1], the acaricidal effect entry is given as “clear acaricidal effect”. The “activity relative to compound 3c{3,6} in screen” value in the series on Varroa destructor mites [3] (1 mg dose) is on record as “slightly less active”.
As to `C=CCOc1ccc(OCC)cc1` [3c{2,6}, 1-(allyloxy)-4-ethoxybenzene], the “paralysis and mite death in screen” value in the series with Varroa destructor mites [3] (1 mg dose, 3 h) is “little paralysis”.
Take `CCCOc1ccc(OCCC)cc1` [3c{3,3}, 1,4-dipropoxybenzene]: in the series with Varroa mites [1], the acaricidal effect result was “clear acaricidal effect”. The “paralysis and mite death in screen” value with Varroa destructor mites [3] (1 mg dose, 3 h) is “most reliable mite paralysis”.
As for `C=CCOc1ccccc1OCCC` [3a{3,6}, 1-allyloxy-2-propoxybenzene], the “mites falling off bees” value in the series with Varroa mites [1] is “occasionally fell off bees but reattached quickly”.
For the molecule `CCN(CC)C(=O)c1cccc(C)c1` [DEET, N,N-diethyl-meta-toluamide], the “chemosensing and behavior of honey bees” value with honey bee antennae is “not found to affect”. Besides, in the series on Varroa [4], the “ability of mites to reach a bee” value was “reduced” and the “host preference of Varroa” value is “without affecting”.
On to `CCCCOc1ccc(OCCC)cc1` [3c{4,3}, 1-butoxy-4-propoxybenzene], for which, in the series on Varroa mites [1], the acaricidal effect result is on record as “somewhat effective”. Also, in the series with Varroa destructor mites [3] (1 mg dose, 3 h), the “paralysis and mite death in screen” value is “most death”.
`C=CCOc1ccc(OCC=C)cc1` [3c{6,6}, 1,4-bis(allyloxy)benzene]: the acaricidal effect entry with Varroa mites [1] was “clear acaricidal effect”. For the same molecule, the “mites falling off bees” value in the series on Varroa mites [1] is reported as “occasionally fell off bees but reattached quickly”. This molecule displayed a mite paralysis/mortality with Varroa mites [2] of 50%. In the series on Varroa mites [2] (FIG. 9 / FIG. 10), the “doses at which mites were paralyzed or killed” value was at least 10 µg. The acaricidal activity alone result in the series on Varroa [5] was “acaricidal”. In addition, the “mite paralysis+death” value with Varroa destructor mites [6] (0.2 mg) and in the series with Varroa destructor mites [6] (0.5 mg) was “no activity” in each case. Further, in the series with Varroa destructor mites [6] (10 mg), the “mite paralysis or death” value is reported as 100%. For the same molecule, the “fold less active than 3c{3,6} with regard to paralysis and death of mites” value in the series with Varroa destructor mites [3] (from EC50) is “ca. 4 ×”. For the same molecule, the “EC50 for paralysis and eventual death of mites” value in the series with Varroa destructor mites [3] (neat compound on the source, vapors only, 3 h) came to 182 µg.
On to `Cc1ccc(C(C)C)c(OC=O)c1` [thymyl formate], for which, in the series on Varroa mites [1], the acaricidal effect entry is listed as “somewhat effective”.
